≈ marks a conversion by molar mass, not a printed value.
Key:
[1] = Oral bioavailability in lean C57BL/6J mouse at 100 umol/kg dosed daily for 7 days by HPLC-MS analysis; type: ADME, organism-based; conditions: in vivo, at 100 µmol/kg, time 7 day
[2] = Metabolic stability in human liver microsomes assessed as intrinsic clearance measured upto 30 mins by LC-MS/MS analysis; type: ADME, Microsome; conditions: read-out: CLH
[3] = Apparent permeability in human Caco-2 cells at 10 uM incubated for 45 to 120 mins by LC-MS/MS analysis; type: ADME, cell-based; conditions: time 45-120 min, read-out: permeability
[4] = Half life in lean C57BL/6J mouse at 100 umol/kg, po dosed daily for 7 days by HPLC-MS analysis; type: ADME, organism-based; conditions: in vivo, dose 100 µmol/kg, time 7 day
[5] = Metabolic stability in mouse Hepatocyte assessed as intrinsic clearance in 1 million cells/mL by LC-MS/MS analysis; type: ADME, cell-based; conditions: hepatocytes, read-out: CLH
[6] = Aqueous solubility of the compound by LC-MS/MS analysis; type: physicochemical; conditions: buffer
[7] = Lipophilicity, logD of compound at pH 7.4 by shake flask assay based LC-MS/MS analysis; type: physicochemical; conditions: buffer
[8] = Metabolic stability in human Hepatocyte assessed as intrinsic clearance in 1 million cells/mL measured upto 60 mins by LC-MS/MS analysis; type: ADME, cell-based; conditions: hepatocytes, read-out: CLH
[9] = Cmax in lean C57BL/6J mouse at 100 umol/kg, po dosed daily for 7 days by HPLC-MS analysis; type: ADME, organism-based; design: route oral, dose 100 µmol/kg, time 7 day; conditions: in vivo
[10] = Metabolic stability in rat Hepatocyte assessed as intrinsic clearance in 1 million cells/mL measured upto 120 mins by LC-MS/MS analysis; type: ADME, cell-based; conditions: hepatocytes, read-out: CLH

bioavailability [1]: 109%
microsomal CLint [2]: < 4 µL/min/mg
Papp at 10 µM [3]: 13 ×10⁻⁶ cm/s
half-life [4]: 5 h
hepatocyte CLint [5]: 10 µL/min/1e6 cells
solubility [6]: 324 µM (≈ 143 µg/mL)
logD [7]: 2.3
hepatocyte CLint [8]: 15.2 µL/min/1e6 cells
Cmax [9]: 167 µM
hepatocyte CLint [10]: 8.8 µL/min/1e6 cells
Compound: O=C(O)c1nn(Cc2ccc(Cl)c(Cl)c2)c(=O)c2cc(Oc3ccccc3)ccc12
